From patent US20230085307A1, “PYRIDAZINONE COMPOUND AND HERBICIDE” (NISSAN CHEMICAL CORPORATION, priority 2019, published 2023)

Legend:
Italian ryegrass [1] = test: Test Example 4: herbicidal effect by soil treatment (Table 19, symbol K); type: in vivo, Italian ryegrass (Lolium multiflorum); details: amount of applied herbicide 320 g/ha
Outline: (§1)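 Seeds were sown in sterilized diluvial soil and covered with about 1.5 cm of soil. An emulsion formulation diluted with water to a predetermined herbicide amount was sprayed evenly onto the soil surface. Plants grew in a greenhouse at 25° C. to 30° C., and the effect was scored three weeks after application using criteria from an earlier test.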

persian speedwell [2] = test: Test Example 5: herbicidal effect by foliage application, plastic box (Table 20, symbol R); type: in vivo, Persian speedwell (Veronica persica); details: foliage application, 320 g/ha, evaluated three weeks after application
Outline: (§2)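 Plants sown in sterilized diluvial soil and grown 14 days in a greenhouse at 25° C to 30° C, then sprayed on the foliage with the compound's emulsion diluted in water to a predetermined herbicide amount. Injury to weeds and crops scored three weeks after application on a visual rating scale.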

chickweed [3] = test: Test Example 4: herbicidal effect by soil treatment (Table 19, symbol P); type: in vivo, common chickweed (Stellaria media); details: amount of applied herbicide 320 g/ha
Outline: as §1

windgrass [4] = test: Test Example 4: herbicidal effect by soil treatment (Table 19, symbol L); type: in vivo, windgrass (Apera spica-venti); details: amount of applied herbicide 320 g/ha
Outline: as §1

barnyard grass [5] = test: Test Example 3: herbicidal effect by foliage application, Wagner pot (Table 18, symbol H); type: in vivo, barnyard grass (Echinochloa crus-galli); details: amount of applied herbicide 320 g/ha
Outline: (§3)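 Plants were sown in alluvial soil held under 0.1–0.5 cm standing water and grown 14 days in a greenhouse at 25–30 °C. An emulsifiable formulation, water-diluted to the set dose, was then sprayed onto the foliage, and effects were scored three weeks later using previously defined criteria.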

blackgrass [6] = test: Test Example 5: herbicidal effect by foliage application, plastic box (Table 20, symbol J); type: in vivo, blackgrass (Alopecurus myosuroides); details: foliage application, 320 g/ha, evaluated three weeks after application
Outline: as §2

false cleavers = test: Test Example 4: herbicidal effect by soil treatment (Table 19, symbol Q); type: in vivo, false cleavers (Galium spurium); details: amount of applied herbicide 320 g/ha
Outline: as §1

velvetleaf [7] = test: Test Example 4: herbicidal effect by soil treatment (Table 19, symbol M); type: in vivo, velvetleaf (Abutilon theophrasti); details: amount of applied herbicide 320 g/ha
Outline: as §1

chickweed [8] = test: Test Example 5: herbicidal effect by foliage application, plastic box (Table 20, symbol P); type: in vivo, common chickweed (Stellaria media); details: foliage application, 320 g/ha, evaluated three weeks after application
Outline: as §2

southern crabgrass [9] = test: Test Example 5: herbicidal effect by foliage application, plastic box (Table 20, symbol F); type: in vivo, southern crabgrass (Digitaria ciliaris); details: foliage application, 320 g/ha, evaluated three weeks after application
Outline: as §2

southern crabgrass [10] = test: Test Example 4: herbicidal effect by soil treatment (Table 19, symbol F); type: in vivo, southern crabgrass (Digitaria ciliaris); details: amount of applied herbicide 320 g/ha
Outline: as §1

late watergrass = test: Test Example 1: herbicidal activity, application before weed generation under submerged conditions (Table 16, symbol A); type: in vivo, late watergrass (Echinochloa oryzicola); details: 320 g/ha applied herbicide
Outline: (§4)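 Submerged Wagner pots (alluvial soil, 4 cm water) sown with weed seeds and planted with 2.5-leaf rice seedlings; emulsifiable concentrate diluted in water applied to water surface on sowing day. Held in greenhouse at 25-30 °C; injury scored 0-5 by herbicidal rate after three weeks.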

blackgrass [11] = test: Test Example 4: herbicidal effect by soil treatment (Table 19, symbol J); type: in vivo, blackgrass (Alopecurus myosuroides); details: amount of applied herbicide 320 g/ha
Outline: as §1

oval-leafed pondweed = test: Test Example 1: herbicidal activity, application before weed generation under submerged conditions (Table 16, symbol C); type: in vivo, oval-leafed pondweed (Monochoria vaginalis); details: 320 g/ha applied herbicide
Outline: as §4

green foxtail [12] = test: Test Example 4: herbicidal effect by soil treatment (Table 19, symbol G); type: in vivo, green foxtail (Setaria viridis); details: amount of applied herbicide 320 g/ha
Outline: as §1

Japanese bulrush = test: Test Example 1: herbicidal activity, application before weed generation under submerged conditions (Table 16, symbol B); type: in vivo, Japanese bulrush (Schoenoplectus juncoides); details: 320 g/ha applied herbicide
Outline: as §4

velvetleaf [13] = test: Test Example 5: herbicidal effect by foliage application, plastic box (Table 20, symbol M); type: in vivo, velvetleaf (Abutilon theophrasti); details: foliage application, 320 g/ha, evaluated three weeks after application
Outline: as §2

lambsquarters [14] = test: Test Example 5: herbicidal effect by foliage application, plastic box (Table 20, symbol O); type: in vivo, lambsquarters (Chenopodium album); details: foliage application, 320 g/ha, evaluated three weeks after application
Outline: as §2

Chinese sprangletop = test: Test Example 3: herbicidal effect by foliage application, Wagner pot (Table 18, symbol D); type: in vivo, chinese sprangletop (Leptochloa chinensis); details: amount of applied herbicide 320 g/ha
Outline: as §3

barnyard grass [15] = test: Test Example 4: herbicidal effect by soil treatment (Table 19, symbol H); type: in vivo, barnyard grass (Echinochloa crus-galli); details: amount of applied herbicide 320 g/ha
Outline: as §1

redroot pigweed [16] = test: Test Example 4: herbicidal effect by soil treatment (Table 19, symbol N); type: in vivo, redroot pigweed (Amaranthus retroflexus); details: amount of applied herbicide 320 g/ha
Outline: as §1

green foxtail [17] = test: Test Example 5: herbicidal effect by foliage application, plastic box (Table 20, symbol G); type: in vivo, green foxtail (Setaria viridis); details: foliage application, 320 g/ha, evaluated three weeks after application
Outline: as §2

persian speedwell [18] = test: Test Example 4: herbicidal effect by soil treatment (Table 19, symbol R); type: in vivo, Persian speedwell (Veronica persica); details: amount of applied herbicide 320 g/ha
Outline: as §1

redroot pigweed [19] = test: Test Example 5: herbicidal effect by foliage application, plastic box (Table 20, symbol N); type: in vivo, redroot pigweed (Amaranthus retroflexus); details: foliage application, 320 g/ha, evaluated three weeks after application
Outline: as §2

windgrass [20] = test: Test Example 5: herbicidal effect by foliage application, plastic box (Table 20, symbol L); type: in vivo, windgrass (Apera spica-venti); details: foliage application, 320 g/ha, evaluated three weeks after application
Outline: as §2

wild oat [21] = test: Test Example 4: herbicidal effect by soil treatment (Table 19, symbol I); type: in vivo, wild oat (Avena fatua); details: amount of applied herbicide 320 g/ha
Outline: as §1

lambsquarters [22] = test: Test Example 4: herbicidal effect by soil treatment (Table 19, symbol O); type: in vivo, lambsquarters (Chenopodium album); details: amount of applied herbicide 320 g/ha
Outline: as §1

wild oat [23] = test: Test Example 5: herbicidal effect by foliage application, plastic box (Table 20, symbol I); type: in vivo, wild oat (Avena fatua); details: foliage application, 320 g/ha, evaluated three weeks after application
Outline: as §2

barnyard grass [24] = test: Test Example 5: herbicidal effect by foliage application, plastic box (Table 20, symbol H); type: in vivo, barnyard grass (Echinochloa crus-galli); details: foliage application, 320 g/ha, evaluated three weeks after application
Outline: as §2

rice flat sedge = test: Test Example 3: herbicidal effect by foliage application, Wagner pot (Table 18, symbol E); type: in vivo, rice flat sedge (Cyperus iria); details: amount of applied herbicide 320 g/ha
Outline: as §3

Italian ryegrass [25] = test: Test Example 5: herbicidal effect by foliage application, plastic box (Table 20, symbol K); type: in vivo, Italian ryegrass (Lolium multiflorum); details: foliage application, 320 g/ha, evaluated three weeks after application
Outline: as §2

**Q.** How did the “K: Italian ryegrass, herbicidal effect rating” value (Italian ryegrass [1]) turn out when COCC(=O)Nc1ccc2sc(-c3ccc(F)cc3OC)c(-c3c(O)c(C)nn(C)c3=O)c2c1 [2-179] was run?
**A.** 0 (Herbicidal rate of 5% or less (almost no effect))

**Q.** What about the “herbicidal effect on R: persian speedwell (criteria 0-5)” value (persian speedwell [2]) of the same molecule?
**A.** 3 (Herbicidal rate of 40% or more and less than 70%)

**Q.** What about the “P: chickweed, herbicidal effect rating” value (chickweed [3]) of the same molecule?
**A.** 3 (Herbicidal rate of 40% or more and less than 70%)

**Q.** And the “L: windgrass, herbicidal effect rating” value (windgrass [4])?
**A.** 0 (Herbicidal rate of 5% or less (almost no effect))

**Q.** And the “herbicidal effect on H: barnyard grass” value (barnyard grass [5])?
**A.** 2 (Herbicidal rate of 20% or more and less than 40%)

**Q.** What about the “herbicidal effect on J: blackgrass (criteria 0-5)” value (blackgrass [6]) of the same molecule?
**A.** 0 (Herbicidal rate of 5% or less (almost no effect))

**Q.** What about the “Q: false cleavers, herbicidal effect rating” value (false cleavers) of the same molecule?
**A.** 0 (Herbicidal rate of 5% or less (almost no effect))

**Q.** And the “M: velvetleaf, herbicidal effect rating” value (velvetleaf [7])?
**A.** 0 (Herbicidal rate of 5% or less (almost no effect))

**Q.** And the “herbicidal effect on P: chickweed (criteria 0-5)” value (chickweed [8])?
**A.** 5 (Herbicidal rate of 90% or more (almost completely withered))

**Q.** What about the “herbicidal effect on F: southern crabgrass (criteria 0-5)” value (southern crabgrass [9]) of the same molecule?
**A.** 0 (Herbicidal rate of 5% or less (almost no effect))

**Q.** And the “F: southern crabgrass, herbicidal effect rating” value (southern crabgrass [10])?
**A.** 0 (Herbicidal rate of 5% or less (almost no effect))

**Q.** What about the “Herbicidal effect on A: late watergrass (grade 0-5)” value (late watergrass) of the same molecule?
**A.** 3 (Herbicidal rate of 40% or more and less than 70%)

**Q.** And the “J: blackgrass, herbicidal effect rating” value (blackgrass [11])?
**A.** 0 (Herbicidal rate of 5% or less (almost no effect))

**Q.** And the “Herbicidal effect on C: oval-leafed pondweed (grade 0-5)” value (oval-leafed pondweed)?
**A.** 0 (Herbicidal rate of 5% or less (almost no effect))

**Q.** What about the “G: green foxtail, herbicidal effect rating” value (green foxtail [12]) of the same molecule?
**A.** 0 (Herbicidal rate of 5% or less (almost no effect))

**Q.** And the “Herbicidal effect on B: Japanese bulrush (grade 0-5)” value (Japanese bulrush)?
**A.** 0 (Herbicidal rate of 5% or less (almost no effect))

**Q.** What about the “herbicidal effect on M: velvetleaf (criteria 0-5)” value (velvetleaf [13]) of the same molecule?
**A.** 1 (Herbicidal rate of 5% or more and less than 20%)

**Q.** What about the “herbicidal effect on O: lambsquarters (criteria 0-5)” value (lambsquarters [14]) of the same molecule?
**A.** 2 (Herbicidal rate of 20% or more and less than 40%)

**Q.** And the “herbicidal effect on D: Chinese sprangletop” value (Chinese sprangletop)?
**A.** 2 (Herbicidal rate of 20% or more and less than 40%)

**Q.** What about the “H: barnyard grass, herbicidal effect rating” value (barnyard grass [15]) of the same molecule?
**A.** 0 (Herbicidal rate of 5% or less (almost no effect))

**Q.** What about the “N: redroot pigweed, herbicidal effect rating” value (redroot pigweed [16]) of the same molecule?
**A.** 2 (Herbicidal rate of 20% or more and less than 40%)

**Q.** And the “herbicidal effect on G: green foxtail (criteria 0-5)” value (green foxtail [17])?
**A.** 0 (Herbicidal rate of 5% or less (almost no effect))

**Q.** And the “R: persian speedwell, herbicidal effect rating” value (persian speedwell [18])?
**A.** 3 (Herbicidal rate of 40% or more and less than 70%)

**Q.** What about the “herbicidal effect on N: redroot pigweed (criteria 0-5)” value (redroot pigweed [19]) of the same molecule?
**A.** 3 (Herbicidal rate of 40% or more and less than 70%)

**Q.** And the “herbicidal effect on L: windgrass (criteria 0-5)” value (windgrass [20])?
**A.** 0 (Herbicidal rate of 5% or less (almost no effect))

**Q.** And the “I: wild oat, herbicidal effect rating” value (wild oat [21])?
**A.** 0 (Herbicidal rate of 5% or less (almost no effect))

**Q.** And the “O: lambsquarters, herbicidal effect rating” value (lambsquarters [22])?
**A.** 3 (Herbicidal rate of 40% or more and less than 70%)

**Q.** What about the “herbicidal effect on I: wild oat (criteria 0-5)” value (wild oat [23]) of the same molecule?
**A.** 0 (Herbicidal rate of 5% or less (almost no effect))

**Q.** What about the “herbicidal effect on H: barnyard grass (criteria 0-5)” value (barnyard grass [24]) of the same molecule?
**A.** 0 (Herbicidal rate of 5% or less (almost no effect))

**Q.** What about the “herbicidal effect on E: rice flat sedge” value (rice flat sedge) of the same molecule?
**A.** 4 (Herbicidal rate of 70% or more and less than 90%)

**Q.** And the “herbicidal effect on K: Italian ryegrass (criteria 0-5)” value (Italian ryegrass [25])?
**A.** 0 (Herbicidal rate of 5% or less (almost no effect))
